Source: patent publication US20230302131A1, “MPC INHIBITION FOR PRODUCING T-CELLS WITH A MEMORY PHENOTYPE” (UNIVERSITÉ DE LAUSANNE, priority 2020, published 2023)

Tested on: human CD4 T cells
Test: Human cord blood PBMC culture, CD62L in CD3-pos/CD8-neg (CD4) T cells
Type: cell-based
Conditions: 25 μM; day 11; vs DMSO
Procedure: Peripheral blood mononuclear cells were isolated from fresh umbilical vein cord blood on a Percoll gradient. PBMCs were then cultured in RPMI supplemented with 10% human serum. 10^4 PBMC's were seeded per well in a round bottom 96-well plate and activated with anti-CD3/CD28 beads at a 1:2 cell:bead ratio and 300 U/ml rhIL-2, in the presence of 25 μM UK5099 or DMSO. Cells were regularly split and CD62L expression was determined by flow cytometry on day 11.
CD62L expression in human CD4 T cells was also analyzed. Human cord blood PBMCs were cultured and activated as described before, in the presence of 25p M UK5099 or DMSO control. About 98% of the cells in culture on day 11 are CD3-positive. Since CD3 is exclusively expressed on CD4 and CD8 T cells, we can deduct that all CD3-positive, CD8-negative must be CD4 T cells. When analyzing the CD3-pos/CD8-neg population we observed that CD62L expression is increased upon MPCi treatment (FIG. 5D).

SMILES: N#CC(=Cc1cn(-c2ccccc2)c2ccccc12)C(=O)O [UK5099, 2-cyano-3-(1-phenyl-1H-indol-3-yl)-2-propenoic acid]
- CD62L expression in human CD3-pos/CD8-neg (CD4) T cells: increased
